Data published in patent US8846750B2, “Pharmaceutical and food compositions for preventing or treating diabetes or obesity” (Korea Ocean Research and Development Institute, priority 2010, dated 2014).

What was measured:
[1] = target: T1, TC-PTP (PTPN2) (Homo sapiens, UniProt P17706); experiment: Selectivity for protein tyrosine phosphatases: TC-PTP (PTPN2); assay type: biochemical; conditions: 0, 50, 100 or 200 nM tested
T1 construct: purchased Bioneer, Korea
T1 sequence (P17706 1-415): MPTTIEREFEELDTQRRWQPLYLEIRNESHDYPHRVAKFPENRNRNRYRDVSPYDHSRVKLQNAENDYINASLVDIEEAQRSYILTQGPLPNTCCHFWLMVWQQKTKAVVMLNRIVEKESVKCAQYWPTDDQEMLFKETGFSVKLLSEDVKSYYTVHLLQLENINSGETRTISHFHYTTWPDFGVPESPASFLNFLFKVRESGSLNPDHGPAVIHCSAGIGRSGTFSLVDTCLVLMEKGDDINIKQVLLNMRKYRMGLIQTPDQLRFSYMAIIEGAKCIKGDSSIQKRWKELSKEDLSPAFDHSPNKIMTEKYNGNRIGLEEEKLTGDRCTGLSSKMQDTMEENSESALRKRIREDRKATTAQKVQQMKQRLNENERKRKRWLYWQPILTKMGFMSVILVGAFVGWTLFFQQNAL
Description: (§1) In order to examine the selectivity of sodium lobarate for protein tyrosine phosphatases, the inhibitory activities of sodium lobarate against PTP-1b, PTPN2, PTPN5, PTPN6, PTPN7 and PTPN13 were examined by spectroscopically measuring the activities of the enzymes.
Specifically, to 0.5 mg/Ml of PTP-1b, PTPN2, PTPN5, PTPN6, PTPN7 or PTPN13 (Bioneer, Korea) in protein tyrosine phosphatase buffer (20 mM Tris-Hcl, pH 8.0, 0.75 mM NaCl, 0.5 mM EDTA, 5 mM β-mercaptoethanol, 50% glycerol), 0, 50, 100 or 200 nM sodium lobarate and the substrate [pTyr1146] insulin receptor (1142-1153, Sigma, USA) were added. Then, each of the mixtures was allowed to react at room temperature for 10-30 minutes, and then malachite green-molybdate dye solution (Sigma, USA) was added thereto and reacted at room temperature for 10 minutes. After completion of the reaction with the substrate, the absorbance at 620 nm was measured. […]
Specifically, to 0.5 mg/Ml of PTP-1b, PTPN2, PTPN5, PTPN6, PTPN7 or PTPN13 (Bioneer, Korea) in protein tyrosine phosphatase buffer (20 mM Tris-Hcl, pH 8.0, 0.75 mM NaCl, 0.5 mM EDTA, 5 mM β-mercaptoethanol, 50% glycerol), 0, 50, 100 or 200 nM Lobarin and the substrate [pTyr1146] insulin receptor (1142-1153, Sigma, USA) were added. […] After completion of the reaction with the substrate, the absorbance at 620 nm was measured. […]

[2] = system: other protein tyrosine phosphatases (PTPN5, PTPN6, PTPN7, PTPN13); experiment: Selectivity for protein tyrosine phosphatases: other phosphatases of the panel; assay type: biochemical; conditions: for inhibitory activity against other protein tyrosine phosphatases: 0, 50, 100 or 200 nM tested; for selectivity among protein tyrosine phosphatases: PTP-1b, PTPN2, PTPN5, PTPN6, PTPN7 and PTPN13
Description: as §1
(§2) Specifically, to 0.5 mg/Ml of PTP-1b, PTPN2, PTPN5, PTPN6, PTPN7 or PTPN13 (Bioneer, Korea) in protein tyrosine phosphatase buffer (20 mM Tris-Hcl, pH 8.0, 0.75 mM NaCl, 0.5 mM EDTA, 5 mM β-mercaptoethanol, 50% glycerol), 0, 50, 100 or 200 nM sodium lobarate and the substrate [pTyr1146] insulin receptor (1142-1153, Sigma, USA) were added. Then, each of the mixtures was allowed to react at room temperature for 10-30 minutes, and then malachite green-molybdate dye solution (Sigma, USA) was added thereto and reacted at room temperature for 10 minutes. After completion of the reaction with the substrate, the absorbance at 620 nm was measured.
In order to examine the selectivity of Lobarin for protein tyrosine phosphatases, the inhibitory activities of Lobarin against PTP-1b, PTPN2, PTPN5, PTPN6, PTPN7 and PTPN13 were examined by spectroscopically measuring the activities of the enzymes.
as §2, with “Lobarin” for “sodium lobarate”
as §2, with “In order to examine the selectivity of Lobarstin for protein tyrosine phosphatases, the inhibitory activities of Lobarstin against PTP-1b, PTPN2, PTPN5, PTPN6, PTPN7 and PTPN13 were examined by spectroscopically measuring the activities of the enzymes. Specifically,” for “Specifically,”, “Lobarstin” for “sodium lobarate”

[3] = system: db/db mice (type 2 diabetic model animals); experiment: Blood glucose level following 6 hours of fasting after intraperitoneal administration; assay type: in vivo; conditions: 10 mg/kg intraperitoneally daily; for increase in the fasting blood glucose level compared with control group: days 0-21, 6 hours of fasting; for average blood glucose level after 6 hours of fasting: db/db mice
Description: (§3) In order to more accurately measure the antidiabetic effect of sodium lobarate, 200 μl of PBS for a control group and 10 mg/kg of sodium lobarate (PTP-1b activity inhibitory compound) for a test group was administered, respectively, intraperitoneally daily to 7-week-old male db/db mice (type 2 diabetic model animals, C57/BLKS/J-db/db, the Korea Research Institute of Bioscience and Biotechnology), and the blood glucose levels of the animals were measured twice a week. Herein, measurement of the blood glucose level was performed after 6 hours of fasting after intraperitoneal injection of sodium lobarate.
as §3, with “effect of Lobarin, 200 μl” for “effect of sodium lobarate, 200 μl”, “mg/kg of Lobarin for a” for “mg/kg of sodium lobarate (PTP-1b activity inhibitory compound) for a”, “blood glucose levels was performed” for “blood glucose level was performed”, “injection of Lobarin.” for “injection of sodium lobarate.”
In order to more accurately measure the antidiabetic effect of Lobarstin, 200 μl of PBS for a control group and 10 mg/kg of Lobarstin for a test group was administered intraperitoneally daily to 7-week-old male db/db mice (type 2 diabetic model animals, C57/BLKS/J-db/db, the Korea Research Institute of Bioscience and Biotechnology), and the blood glucose levels of the animals were measured twice a week. Herein, measurement of the blood glucose levels was performed after 6 hours of fasting after intraperitoneal injection of Lobarstin.

inhibitory activity against TC-PTP (PTPN2) [1] | SMILES | inhibitory activity against other protein tyrosine phosphatases [2] | selectivity among protein tyrosine phosphatases [2] | increase in the fasting blood glucose level compared with control group [3] | average blood glucose level after 6 hours of fasting ([3]; day 0) | average blood glucose level after 6 hours of fasting ([3]; day 3) | average blood glucose level after 6 hours of fasting ([3]; day 7) | average blood glucose level after 6 hours of fasting ([3]; day 10) | average blood glucose level after 6 hours of fasting ([3]; day 14) | average blood glucose level after 6 hours of fasting ([3]; day 17) | average blood glucose level after 6 hours of fasting ([3]; day 21)
no inhibitory activity | CCCCCc1c(Oc2cc(OC)cc3c2C(=O)OC3(O)CCCC)c(O)cc(O)c1C(=O)O (stereo not shown) [Lobarin] | no inhibitory activity | acts selectively only on PTP-1b | less than that in the control group | 152 mg/dL | 141 mg/dL | 155 mg/dL | 198 mg/dL | 261 mg/dL | 287 mg/dL | 340 mg/dL
 | CCCCCc1c2c(cc(O)c1C(=O)[O-])OC(=O)c1c(cc(OC)cc1C(=O)CCCC)O2.[Na+] [sodium lobarate] |  | acts selectively only on PTP-1b | less than that in the control group | 141 mg/dL | 142 mg/dL | 185 mg/dL | 206 mg/dL | 232 mg/dL | 236 mg/dL | 313 mg/dL
no inhibitory activity | CCC/C=C1/OC(=O)c2c(Oc3c(O)cc(O)c(C(=O)O)c3CCCCC)cc(OC)cc21 [Lobarstin] | no inhibitory activity | acts selectively only on PTP-1b | less than that in the control group | 134 mg/dL |  | 182 mg/dL |  | 162 mg/dL |  | 204 mg/dL
